Assay [1] relates to TNFα secretion in white blood cells from human buffy coat.
Experimental: (§1) Drugs were added to the indicated concentration. […] The plate was then washed again with 0.1% Tween 20/PBS. An HRP-luminescent substrate was added to each well, and the light intensity of each well was measured using a plate luminometer.
Assay [2] shares this test system. Nature of the assay: TNFα secretion assay, cells stimulated with phorbol 12-myristate 13-acetate and ionomycin (Tables 7-26). As to conditions: for percent inhibition of TNFα secretion: dipyridamole 0 μM; for inhibition at 0.3 µM: read-out: percent inhibition of TNFα secretion, dipyridamole 0.3 μM; for inhibition at 19 µM: read-out: percent inhibition of TNFα secretion, dipyridamole 19 μM; for inhibition at 39 µM: read-out: percent inhibition of TNFα secretion, dipyridamole 39 μM.
Experimental: as §1

Setting [3] is: Homo sapiens, Nortriptyl (μM): 0, 0.52, 1, 2.1, 4.2, 8.3, 17, 33, 67.
Where [4] appears, read: Homo sapiens, Ro-20-1724 (μM) by grid row: r5 0, r6 0.28, r7 0.56, r8 1.1, r9 2.2, r10 4.5, r11 9, r12 18, r13 36.
Setting [5] is: Homo sapiens, amoxapine (μM) by grid row: r5 0, r6 0.25, r7 0.5, r8 1, r9 2, r10 4, r11 8, r12 16, r13 32.
[6] abbreviates: Homo sapiens, fluoxetine (μM) by grid row: r5 0, r6 0.45, r7 0.9, r8 1.8, r9 3.6, r10 7.2, r11 14, r12 29, r13 58.
[7] abbreviates: Homo sapiens, paroxetine (μM): 0, 0.21, 0.42, 0.83, 1.7, 3.3, 6.7, 13, 27.

For orientation: inhibition means the drop in the measured response relative to a control, in per cent.

Where “and” joins values, the source holds several entries; their conditions need not be identical. Identical values can stand only once. Counter-ions that a name gives are not always drawn. Like-named read-outs stand apart in the source and are kept apart here.

For `C[C@H]1C[C@H]2[C@@H]3CCC4=CC(=O)C=C[C@]4(C)[C@@]3(F)[C@@H](O)C[C@]2(C)[C@@]1(O)C(=O)CO` [Betamethasone], in assay [1], the inhibition is 34.9% and 35.2%.

Turning to `CCCC1O[C@@H]2C[C@H]3[C@@H]4CCC5=CC(=O)C=C[C@]5(C)[C@H]4[C@@H](O)C[C@]3(C)[C@]2(C(=O)CO)O1` (stereo partly shown) [Budesonide], in assay [2] (Homo sapiens, read-out: percent inhibition of TNFα secretion, budesonide 35 nM, dipyridamole (μM as printed) by grid row: r5 0, r6 30, r7 121, r8 486, r9 1943, r10 7773), the inhibition at […] worked out at 36.3%.

For `CN1CCC(=C2c3ccccc3C=Cc3ccccc32)CC1` [Cyproheptadine HCl], the “percent inhibition of TNFα secretion” value in assay [2] (cyproheptadine HCl (μM) by grid row: r5 0, r6 0.24, r7 0.48, r8 0.96, r9 1.9, r10 3.9, r11 7.7, r12 15, r13 31) came out at 29%.

As to `OCCN(CCO)c1nc(N2CCCCC2)c2nc(N(CCO)CCO)nc(N3CCCCC3)c2n1` [Dipyridamole, 2,6-bis(diethanolamino)-4,8-dipiperidinopyrimido(5,4-d)pyrimidine], the inhibition at 0.3 µM is 14% in assay [2] (setting [3]); -1.96% in assay [2] (setting [4]); 19% in assay [2] (setting [5]); 18% in assay [2] (setting [6]); 21% in assay [2] (setting [7]). The inhibition at 19 µM in assay [2] (setting [3]) amounted to 64%; in assay [2] (setting [4]) it was 64%; in assay [2] (setting [6]), 62%; in assay [2] (setting [7]), 60%. Besides, the inhibition at 39 µM in assay [2] (setting [3]) came out at 80%; in assay [2] (setting [5]), 78%; in assay [2] (setting [6]), 76%; in assay [2] (setting [7]), 76%.

On to `CC(C)C(=O)c1c(C(C)C)nn2ccccc12` [Ibudilast], for which the inhibition at 0.5 µM in assay [2] (Homo sapiens, read-out: percent inhibition of TNFα secretion, ibudilast 0.5 μM, dipyridamole (μM): 0, 0.15, 0.3, 0.61, 1.2, 2.4, 4.9, 9.7, 19) worked out at 22.9%. In assay [2] (Homo sapiens, read-out: percent inhibition of TNFα secretion, ibudilast 1 μM, dipyridamole (μM): 0, 0.15, 0.3, 0.61, 1.2, 2.4, 4.9, 9.7, 19), the inhibition at 1 µM amounted to 37.4%. For the same compound, the inhibition at 2 µM in assay [2] (Homo sapiens, read-out: percent inhibition of TNFα secretion, ibudilast 2 μM, dipyridamole (μM): 0, 0.15, 0.3, 0.61, 1.2, 2.4, 4.9, 9.7, 19) stood at 42.9%. In addition, in assay [2] (Homo sapiens, read-out: percent inhibition of TNFα secretion, ibudilast 4 μM, dipyridamole (μM): 0, 0.15, 0.3, 0.61, 1.2, 2.4, 4.9, 9.7, 19), the inhibition at 4 µM was found to be 45.9%. Further, in assay [2] (Homo sapiens, read-out: percent inhibition of TNFα secretion, ibudilast 8 μM, dipyridamole (μM): 0, 0.15, 0.3, 0.61, 1.2, 2.4, 4.9, 9.7, 19), the inhibition at 8 µM came out at 53.8%.

Turning to `CCOC(=O)N1CCC(=C2c3ccc(Cl)cc3CCc3cccnc32)CC1` [Loratadine], the “percent inhibition of TNFα secretion” value in assay [2] (loratadine (μM) by grid row: r5 0, r6 0.2, r7 0.41, r8 0.82, r9 1.6, r10 3.3, r11 6.5, r12 13, r13 26) worked out at 31%.

In the case of `C[C@]12C=CC(=O)C=C1CC[C@@H]1[C@@H]2[C@@H](O)C[C@@]2(C)[C@H]1CC[C@]2(O)C(=O)CO` [Prednisolone], the inhibition at 0.5 µM in assay [2] (Homo sapiens, read-out: percent inhibition of TNFα secretion, prednisolone 0.5 μM, dipyridamole (μM) by grid row: r5 0, r6 0.3, r7 0.61, r8 1.2, r9 2.4, r10 4.9, r11 9.7, r12 19, r13 39) turned out to be 29.9%.

Regarding `COc1ccc(C2CNC(=O)C2)cc1OC1CCCC1` (stereo not shown) [Rolipram, 4-[3-(cyclopentyloxy)-4-methoxyphenyl]-2-pyrrolidone], the inhibition at 0.5 µM in assay [2] (Homo sapiens, read-out: percent inhibition of TNFα secretion, rolipram 0.5 μM, dipyridamole (μM): 0, 0.15, 0.3, 0.61, 1.2, 2.4, 4.9, 9.7, 19) worked out at 36.8%. The inhibition at 1 µM in assay [2] (Homo sapiens, read-out: percent inhibition of TNFα secretion, rolipram 1 μM, dipyridamole (μM): 0, 0.15, 0.3, 0.61, 1.2, 2.4, 4.9, 9.7, 19) was 38.9%.

(Values after patent US8080553B2, “Methods and reagents for the treatment of immunoinflammatory disorders” (Zalicus Inc., priority 2003, dated 2011).)
